The test system of one assay is HT29 cells. As to the kind of experiment: MTS cytotoxicity assay, 72 hours, single agents and combinations with Aplidine. The conditions noted are these: read-out: IC50 (Molar). In kind it is cell-based. On the procedure: (§1) Day before plating cells all cultures were fed with fresh, complete growth media. On the harvest (plating) day cells were counted by Trypan Blue exclusion staining method (basic cell culture). Cells were harvested and seeded in 96 well microtiter plates at 10,000 cells per well in 190 μL of media and incubated for 24 hours to allow the cells to attach before drug addition. Cells were treated with the drugs and the cytotoxic effect was measured by the MTS Assay (Tetrazolium), which is a colorimetric method for determining the number of viable cells. After the 72 hours of incubation with drug, 25 μL of MTS+PMS solution was added to each microtiter well and incubated for 4 hours at 37° C. Plates were then removed from incubator and placed on plate shaker for 5 minutes (covered with aluminium foil for protection from light). Optical densities were read at 490 nm on spectrophotometer plate reader.
(§2) The microtiter plates were incubated for 72 hrs, at 5% CO2 and 37° C. The cytotoxic effect was measured by MTS Assay. Optical densities read at 490 nm. Normalized data was plotted and interpreted as described. Data was analysed as: • 1. Prism (Graphpad) software program was used to normalized the data to control values (100%=cell growth in the absence of agent (drug); 0%=blank control). • 2. Data normalized were plotted as scatter plots.
(§3) Conversely, antagonism was concluded when inhibition was lower than both maxima. […] Statistical significance was assessed by performing a student's t-test on the inhibition at each dose ratio versus the inhibition at the maximum for each drug.
(§4) As a visual aid, response values were plotted on a scatter plot with dose ratios given on the x-axis and % response values on the y-axis. […] In cases where response values at the two endpoints were approximately equivalent, points lying above or below this predicted line of additivity could be interpreted as representing antagonistic or synergistic drug interaction, respectively.
(Formazan colour is commonly taken as a measure of viable cells.)

A further assay has as its system A549 cells. Described as above. The conditions noted are these: A549, 72 hours drug exposure, read-out: IC50 (Molar). In kind it is cell-based. On the procedure: as §1, §2, §3, §4
The subject of a further assay is MOLT3 cells. Described as above. In kind it is cell-based. The conditions noted are these: read-out: IC50 (Molar). On the procedure:
as §1, §2, §3, §4

A further assay relates to PC3 cells. The assay is described as above. In kind it is cell-based. The conditions noted are these: read-out: IC50 (Molar). As for the experimental part:
as §1, §2, §3, §4

The next assay relates to MX1 cells. Described as above. In kind it is cell-based. Particulars: MX1, 72 hours drug exposure, read-out: IC50 (Molar). On the procedure:
as §1, §2, §3, §4

In a further assay the test system is HL60 cells. Described as above. In kind it is cell-based. Particulars: read-out: IC50 (Molar). As for the experimental part: as §1, §2, §3, §4
Another assay has as its system SKBR3 cells. The assay is described as above. The conditions noted are these: read-out: IC50 (Molar). Type of assay: cell-based. As for the experimental part:
as §1, §2, §3, §4

The next assay relates to U266B1 cell line. As to the kind of experiment: cells. The conditions noted are these: 72 h, read-out: IC50 (Molar). In kind it is cell-based. As for the experimental part:
(§5) These cell lines were cultured in RPMI1640 medium with 10% FBS and 1% L-Glutamine. Each cell line was plated in a 96 well plates at 20,000 cell per well.
(§6) Each serial dilution was paired with 4 different concentrations of Bortezomib or Melphalan.
(§7) The plates were incubated for 3 days at 37° C. and 5% CO2. The plates were read using the Promega MTS assay system with MTS being metabolized by living cells turning into formazan which is […] at 490 nm wavelength. This is an indirect measure of cell viability. These were analyzed using the Softmax Pro program which determines cell viability based percent of control wells. This IC50 data was then transferred into the CalcuSyn program for combination index analysis. CalcuSyn compares IC50 the values of the drugs alone with that of the drugs in combination using an algorithm to determine a combination index.

In the next assay the test system is RPMI-8226 cell line. As to the kind of experiment: cells. Type of assay: cell-based. The conditions noted are these: Homo sapiens, RPMI-8226, 72 h, read-out: IC50 (Molar). On the procedure:
as §5, §6, §7

Assay [1] relates to RPMI 8226 human myeloma cells. As to the kind of experiment: Antitumor efficacy against subcutaneous-implanted myeloma xenograft. In kind it is in vivo, male, SCID mice. Particulars: RPMI 8226 xenograft, median tumor weight; Aplidine 60 μg/kg/dose IP q1d × 9 day 18, 38; Bortezomib 0.35 mg/kg/dose IV. As for the experimental part: (§8) The animals were housed in microisolator cages, up to five per cage in a 12-hour light/dark cycle. Six-weeks-old male, SCID mice were acclimated in the laboratories for one week prior to the experiment.
Each mouse received 2×10^7 cells resuspended in 0.2 mL of Matrigel®. […] Cells were harvested after four passages in culture. The cells were removed from the flasks, placed in 50-mL centrifuge tubes and centrifuged at 1,000 rpm for 10 minutes in a refrigerated centrifuge. The cell pellets were resuspended in fresh complete medium. The cell count and viability were determined with a Beckman Coulter VI CELL XR cell counter and viability analyzer. The cell suspension was recentrifuged, and the cell pellet was resuspended in Matrigel® at a cell density of 1.0×10^8 cells/mL and placed on wet ice.
The day of tumor cell inoculation was designated as Day 0. […] Those animals selected with tumors in the proper size range were assigned to four treatment groups so that the median tumor weights on the first day of treatment were as close to each other as possible. […]
Animals were observed daily and clinical signed were noted. The s.c. tumors were measured and the animals were weighed twice weekly starting with the first day of treatment, Day 18 after tumor cell inoculation.

Another assay concerns RL human lymphoma cells. As to the kind of experiment: Antitumor efficacy against subcutaneous-implanted lymphoma xenograft. In kind it is in vivo. The conditions noted are these: median tumor weight, Aplidine 60 μg/kg/dose IP q1d × 9 day 15, 28, Rituximab 20 mg/kg/dose IP q3d × 2 day 15, 22, 29, 36.
Excerpt: The purpose of this study was to evaluate the antitumor efficacy of Aplidine when administered in combination with rituximab against subcutaneous-implanted RL human lymphoma cells in […], SCID mice.
as §8
Each mouse was inoculated s.c. near the right flank with RL human lymphoma cells from an in vitro cell culture using a 23-gauge needle. Each mouse received 1.0×10^7 cells resuspended in 0.2 mL of Matrigel®. […] The cell count was determined with a Coulter Model Z1 cell counter and viability was measured following propidium iodide staining and analyzed using a Beckman Coulter EPICS XL flow cytometer. […]
Animals were observed daily and clinical signed were noted. The s.c. tumors were measured and the animals were weighed twice weekly starting with the first day of treatment, Day 15. Tumor volume was determined by caliper measurements (mm) and using the formula for an ellipsoid sphere as described in Example 7.

The mark [2] stands for this setting: Homo sapiens, HT-29, HT29, 72 hours drug exposure.
[3] abbreviates: Homo sapiens, MOLT-3, MOLT3, 72 hours drug exposure.
Setting [4] is: Homo sapiens, PC-3, PC3, 72 hours drug exposure.
[5] abbreviates: Homo sapiens, HL-60, HL60, 72 hours drug exposure.
Setting [6] is: Homo sapiens, SK-BR-3, SKBR3, 72 hours drug exposure.

Where two headings read alike, the source gives them in different places.

As for `CCc1c2c(nc3ccc(O)cc13)-c1cc3c(c(=O)n1C2)COC(=O)[C@]3(O)CC` [SN38, 7-ethyl-10-hydroxycamptothecin], the IC50 in the assay with HT29 cells (HT29, 72 hours drug exposure) was 0.12 µM; in the assay on A549 cells, 1300 µM; in the assay with MOLT3 cells (MOLT3, 72 hours drug exposure), 1 µM; with PC3 cells (PC3, 72 hours drug exposure), 46 µM; with MX1 cells it was 0.15 µM; with HL60 cells (HL60, 72 hours drug exposure), < 1 µM. In addition, in the assay with SKBR3 cells (SKBR3, 72 hours drug exposure), the IC50 was < 1e-05 µM.

With `CC(C)C[C@H](NC(=O)[C@H](Cc1ccccc1)NC(=O)c1cnccn1)B(O)O` [Bortezomib], the IC50 in the assay on U266B1 cell line (U2661, MTS) was 16.6 µM. The IC50 in the assay on RPMI-8226 cell line (RPMI8226, MTS) amounted to 0.00229 µM. Besides, in [1], the “% T/C on day 27” value is on record as 70% and the “% T/C on day 48” value is on record as 67%.

As for `N[C@@H](Cc1ccc(N(CCCl)CCCl)cc1)C(=O)O` [Melphalan], the IC50 came out at 0.00316 µM in the assay with U266B1 cell line and 16.1 µM in the assay with RPMI-8226 cell line.

“Rituximab: Rituxan® (Rituximab), standard agent”: in the assay on RL human lymphoma cells, the “% T/C on day 24” value came to 95% and the “% T/C on day 38” value is recorded as 102%.

In the case of `COc1cccc2c1C(=O)c1c(O)c3c(c(O)c1C2=O)C[C@@](O)(C(=O)CO)C[C@@H]3O[C@H]1C[C@H](N)[C@H](O)[C@H](C)O1` [doxorubicin], the 50% inhibitory concentration (IC50) with HT29 cells (setting [2]) was > 100 µM; in the assay with A549 cells (Homo sapiens), 1.3 µM; in the assay with MOLT3 cells (setting [3]), 0.0069 µM; in the assay on PC3 cells (setting [4]), 11 µM; with MX1 cells (Homo sapiens) it was > 100 µM; in the assay with HL60 cells (setting [5]), > 100 µM. The IC50 with SKBR3 cells (setting [6]) was 0.29 µM.

With `O=c1[nH]cc(F)c(=O)[nH]1` [5-FU, 5-fluorouracil], the IC50 was 880 µM in the assay on HT29 cells (setting [2]); 1400 µM in the assay with A549 cells (Homo sapiens); 11 µM in the assay with MOLT3 cells (setting [3]); 220 µM in the assay with PC3 cells (setting [4]); > 100 µM in the assay with MX1 cells (Homo sapiens); 1200 µM in the assay with HL60 cells (setting [5]).

Consider arsenic trioxide, for which the IC50 came to 80 µM with HT29 cells (HT29, 72 hours drug exposure); 420 µM in the assay with A549 cells; 3.7 µM in the assay on MOLT3 cells (MOLT3, 72 hours drug exposure); 1200 µM with PC3 cells (PC3, 72 hours drug exposure); 97 µM in the assay with MX1 cells; 20 µM in the assay with HL60 cells (HL60, 72 hours drug exposure). Further, the IC50 with SKBR3 cells (SKBR3, 72 hours drug exposure) is 100 µM.

Take `CC(=O)O[C@H]1C(=O)[C@@]2(C)[C@H]([C@H](OC(=O)c3ccccc3)[C@]3(O)C[C@H](OC(=O)[C@H](O)[C@@H](NC(=O)c4ccccc4)c4ccccc4)C(C)=C1C3(C)C)[C@]1(OC(C)=O)CO[C@@H]1C[C@@H]2O` [paclitaxel]: the IC50 with HT29 cells (setting [2]) is 0.005 µM; in the assay with A549 cells (Homo sapiens), 0.013 µM; in the assay with MOLT3 cells (setting [3]) it was 77 µM; in the assay with MX1 cells (Homo sapiens), 9.4 µM; with HL60 cells (setting [5]), 0.016 µM; with SKBR3 cells (setting [6]) it was > 100 µM.

As to `N.N.[Cl][Pt][Cl]` [cisplatin], the IC50 stood at 720 µM in the assay with HT29 cells (HT29, 72 hours drug exposure); 6 µM in the assay with A549 cells; 0.57 µM in the assay on MOLT3 cells (MOLT3, 72 hours drug exposure); 87 µM in the assay with PC3 cells (PC3, 72 hours drug exposure); 170 µM in the assay with MX1 cells; 12 µM in the assay on HL60 cells (HL60, 72 hours drug exposure). For the same molecule, in the assay on SKBR3 cells (SKBR3, 72 hours drug exposure), the IC50 is 7 µM.

Take `Nc1ccn([C@@H]2O[C@H](CO)[C@@H](O)[C@@H]2O)c(=O)n1` [AraC, cytosine arabinoside]: the IC50 with HT29 cells (HT29, 72 hours drug exposure) was > 100 µM; in the assay on A549 cells, > 100 µM; in the assay with MOLT3 cells (MOLT3, 72 hours drug exposure) it was 0.22 µM; with PC3 cells (PC3, 72 hours drug exposure) it was > 100 µM; with MX1 cells it was > 100 µM; with HL60 cells (HL60, 72 hours drug exposure) it was 10 µM. Further, the IC50 in the assay with SKBR3 cells (SKBR3, 72 hours drug exposure) is > 100 µM.

By IC50 is commonly meant the concentration that inhibits the measured activity by half.

The values above are taken from US8258098B2, “Antitumoral treatments” (Pharma Mar, S.A., priority 2006, dated 2012).
